Holding throughout (conditions): Compound concentration 10 µM
Experiment [1] addresses T1, Alpha-2B adrenergic receptor (Homo sapiens) (UniProt P18089).
T1 sequence (whole entry): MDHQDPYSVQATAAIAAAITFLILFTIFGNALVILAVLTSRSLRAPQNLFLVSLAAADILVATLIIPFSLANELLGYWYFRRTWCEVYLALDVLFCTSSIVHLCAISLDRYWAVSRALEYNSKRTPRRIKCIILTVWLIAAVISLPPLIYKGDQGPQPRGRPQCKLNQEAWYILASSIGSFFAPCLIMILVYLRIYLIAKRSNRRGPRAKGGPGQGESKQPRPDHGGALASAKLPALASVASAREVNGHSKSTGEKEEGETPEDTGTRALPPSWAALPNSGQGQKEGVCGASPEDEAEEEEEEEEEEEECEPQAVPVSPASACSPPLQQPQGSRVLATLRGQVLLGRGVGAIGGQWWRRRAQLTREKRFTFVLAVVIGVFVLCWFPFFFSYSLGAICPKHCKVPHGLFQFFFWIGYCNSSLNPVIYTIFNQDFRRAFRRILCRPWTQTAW

The target in experiment [2] is T2, Alpha-2C adrenergic receptor (Homo sapiens) (UniProt P18825).
T2 sequence (whole entry): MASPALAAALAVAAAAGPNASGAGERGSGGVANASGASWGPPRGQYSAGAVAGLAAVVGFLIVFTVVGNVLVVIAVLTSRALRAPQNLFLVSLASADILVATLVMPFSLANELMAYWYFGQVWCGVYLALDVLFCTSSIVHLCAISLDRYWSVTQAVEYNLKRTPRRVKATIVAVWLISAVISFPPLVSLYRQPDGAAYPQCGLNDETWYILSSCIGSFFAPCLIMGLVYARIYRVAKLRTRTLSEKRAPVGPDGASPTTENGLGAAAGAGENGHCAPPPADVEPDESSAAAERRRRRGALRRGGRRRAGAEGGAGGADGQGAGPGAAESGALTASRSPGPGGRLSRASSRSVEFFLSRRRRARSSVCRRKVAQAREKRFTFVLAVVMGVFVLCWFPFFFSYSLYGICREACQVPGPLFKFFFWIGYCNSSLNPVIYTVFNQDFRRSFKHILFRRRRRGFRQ

For experiment [3], the target named is T3, Muscarinic acetylcholine receptor M1 (Homo sapiens) (UniProt P11229).
T3 sequence (whole entry): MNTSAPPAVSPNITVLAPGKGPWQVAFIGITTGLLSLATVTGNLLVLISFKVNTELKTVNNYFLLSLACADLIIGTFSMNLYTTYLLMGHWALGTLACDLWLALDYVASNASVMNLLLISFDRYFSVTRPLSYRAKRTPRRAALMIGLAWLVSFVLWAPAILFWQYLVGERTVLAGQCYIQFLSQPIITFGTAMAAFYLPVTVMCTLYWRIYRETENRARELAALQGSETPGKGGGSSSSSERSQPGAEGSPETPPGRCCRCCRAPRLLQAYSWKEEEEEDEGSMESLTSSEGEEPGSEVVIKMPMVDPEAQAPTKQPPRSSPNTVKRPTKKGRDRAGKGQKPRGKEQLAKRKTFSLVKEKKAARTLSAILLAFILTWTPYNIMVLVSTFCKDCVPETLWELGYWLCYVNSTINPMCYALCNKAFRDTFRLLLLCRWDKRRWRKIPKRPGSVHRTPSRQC

Experiment [4] addresses T4, Muscarinic acetylcholine receptor M2 (Homo sapiens) (UniProt P08172).
T4 sequence (whole entry): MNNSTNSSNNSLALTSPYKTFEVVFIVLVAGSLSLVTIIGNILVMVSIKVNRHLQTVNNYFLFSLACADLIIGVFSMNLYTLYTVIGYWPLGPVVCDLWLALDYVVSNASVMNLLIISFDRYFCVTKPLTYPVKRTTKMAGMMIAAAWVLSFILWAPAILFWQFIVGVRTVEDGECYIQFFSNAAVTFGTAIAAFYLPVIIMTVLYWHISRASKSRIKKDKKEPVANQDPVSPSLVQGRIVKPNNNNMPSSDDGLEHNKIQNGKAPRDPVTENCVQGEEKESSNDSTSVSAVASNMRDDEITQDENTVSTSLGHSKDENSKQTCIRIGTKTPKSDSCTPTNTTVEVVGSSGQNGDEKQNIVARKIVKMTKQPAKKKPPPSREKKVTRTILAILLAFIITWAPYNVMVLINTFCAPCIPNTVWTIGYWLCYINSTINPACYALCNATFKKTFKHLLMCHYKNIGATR

For experiment [5], the target named is Muscarinic acetylcholine receptor M3 (Homo sapiens) (UniProt P20309).
Chain of Muscarinic acetylcholine receptor M3 (Homo sapiens) (P20309 whole entry, looked up): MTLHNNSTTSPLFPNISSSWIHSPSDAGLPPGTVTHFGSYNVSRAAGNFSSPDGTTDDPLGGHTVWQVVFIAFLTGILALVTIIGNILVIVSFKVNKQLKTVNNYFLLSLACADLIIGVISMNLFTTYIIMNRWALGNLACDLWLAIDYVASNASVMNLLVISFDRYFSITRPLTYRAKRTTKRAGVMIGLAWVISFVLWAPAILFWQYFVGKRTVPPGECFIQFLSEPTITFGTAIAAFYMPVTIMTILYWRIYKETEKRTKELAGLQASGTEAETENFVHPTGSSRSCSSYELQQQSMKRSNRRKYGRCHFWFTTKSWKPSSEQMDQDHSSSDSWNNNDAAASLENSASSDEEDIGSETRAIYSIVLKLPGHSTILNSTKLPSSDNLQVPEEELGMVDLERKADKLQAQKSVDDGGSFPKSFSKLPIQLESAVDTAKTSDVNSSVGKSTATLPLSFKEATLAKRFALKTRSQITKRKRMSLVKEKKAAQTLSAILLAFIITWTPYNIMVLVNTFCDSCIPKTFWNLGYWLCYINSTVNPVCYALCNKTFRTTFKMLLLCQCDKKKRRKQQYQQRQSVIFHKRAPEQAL
The target of experiment [6] is 5-hydroxytryptamine receptor 1D (Homo sapiens) (UniProt P28221).
Chain of 5-hydroxytryptamine receptor 1D (Homo sapiens) (P28221 whole entry): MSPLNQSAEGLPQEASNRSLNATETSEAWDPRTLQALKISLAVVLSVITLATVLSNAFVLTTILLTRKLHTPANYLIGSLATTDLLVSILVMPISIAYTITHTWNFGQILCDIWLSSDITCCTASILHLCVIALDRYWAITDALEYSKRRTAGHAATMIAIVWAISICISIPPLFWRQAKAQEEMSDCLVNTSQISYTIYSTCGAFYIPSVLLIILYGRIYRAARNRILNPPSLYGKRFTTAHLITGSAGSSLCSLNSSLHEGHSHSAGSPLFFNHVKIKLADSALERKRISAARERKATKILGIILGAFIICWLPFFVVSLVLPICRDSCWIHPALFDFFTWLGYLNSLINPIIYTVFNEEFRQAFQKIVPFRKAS
Experiment [7] has as its target 5-hydroxytryptamine receptor 5A (Homo sapiens) (UniProt P47898).
For experiment [8], the target named is Delta-type opioid receptor (Homo sapiens) (UniProt P41143).
Chain of Delta-type opioid receptor (Homo sapiens) (P41143 whole entry): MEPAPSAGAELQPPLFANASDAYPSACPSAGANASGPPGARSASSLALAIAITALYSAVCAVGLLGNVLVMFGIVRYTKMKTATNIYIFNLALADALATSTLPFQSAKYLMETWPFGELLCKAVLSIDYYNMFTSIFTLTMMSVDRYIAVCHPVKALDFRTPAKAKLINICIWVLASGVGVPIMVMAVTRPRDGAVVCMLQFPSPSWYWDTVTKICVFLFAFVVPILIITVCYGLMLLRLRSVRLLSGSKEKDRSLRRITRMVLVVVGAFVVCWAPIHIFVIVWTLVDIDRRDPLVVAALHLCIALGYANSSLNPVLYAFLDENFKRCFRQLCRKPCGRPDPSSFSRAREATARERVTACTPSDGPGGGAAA
For experiment [9], the target named is Mu-type opioid receptor (Homo sapiens) (UniProt P35372).
Chain of Mu-type opioid receptor (Homo sapiens) (P35372 whole entry): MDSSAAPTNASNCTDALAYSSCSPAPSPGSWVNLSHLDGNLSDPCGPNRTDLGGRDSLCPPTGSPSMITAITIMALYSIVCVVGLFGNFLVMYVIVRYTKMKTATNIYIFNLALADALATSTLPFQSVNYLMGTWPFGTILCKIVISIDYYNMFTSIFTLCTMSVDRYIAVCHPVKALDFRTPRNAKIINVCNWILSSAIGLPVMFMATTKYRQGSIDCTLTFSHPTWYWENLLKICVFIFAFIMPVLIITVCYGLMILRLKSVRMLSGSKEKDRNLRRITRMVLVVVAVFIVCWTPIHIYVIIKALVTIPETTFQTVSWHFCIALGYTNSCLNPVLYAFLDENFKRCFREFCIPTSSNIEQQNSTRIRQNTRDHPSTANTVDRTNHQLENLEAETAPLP
The target of experiment [10] is Sigma non-opioid intracellular receptor 1 (Homo sapiens) (UniProt Q99720).
Chain of Sigma non-opioid intracellular receptor 1 (Homo sapiens) (Q99720 whole entry): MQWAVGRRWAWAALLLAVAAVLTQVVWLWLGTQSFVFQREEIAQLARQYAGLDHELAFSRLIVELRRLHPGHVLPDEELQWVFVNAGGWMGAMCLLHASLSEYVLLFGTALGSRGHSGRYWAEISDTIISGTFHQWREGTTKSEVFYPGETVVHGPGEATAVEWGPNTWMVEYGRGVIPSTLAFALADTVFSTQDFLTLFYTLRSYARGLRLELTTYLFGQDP
Experiment [11] deals with Histamine H2 receptor (Homo sapiens) (UniProt P25021).
The target in experiment [12] is D(1A) dopamine receptor (Homo sapiens) (UniProt P21728).
Chain of D(1A) dopamine receptor (Homo sapiens) (P21728 whole entry): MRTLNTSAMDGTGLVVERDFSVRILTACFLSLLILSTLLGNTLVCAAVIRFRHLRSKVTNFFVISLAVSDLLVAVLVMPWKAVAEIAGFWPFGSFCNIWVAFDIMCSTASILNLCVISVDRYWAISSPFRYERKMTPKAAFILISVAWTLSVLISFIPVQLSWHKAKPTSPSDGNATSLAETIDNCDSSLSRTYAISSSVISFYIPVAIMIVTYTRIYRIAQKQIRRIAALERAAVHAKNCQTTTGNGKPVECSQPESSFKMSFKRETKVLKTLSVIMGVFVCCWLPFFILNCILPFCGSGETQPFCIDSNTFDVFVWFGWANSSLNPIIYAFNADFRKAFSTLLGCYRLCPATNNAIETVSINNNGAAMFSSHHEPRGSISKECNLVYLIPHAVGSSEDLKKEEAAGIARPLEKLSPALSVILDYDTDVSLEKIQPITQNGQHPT
The target in experiment [13] is Histamine H4 receptor (Homo sapiens) (UniProt Q9H3N8).
Chain of Histamine H4 receptor (Homo sapiens) (Q9H3N8 whole entry): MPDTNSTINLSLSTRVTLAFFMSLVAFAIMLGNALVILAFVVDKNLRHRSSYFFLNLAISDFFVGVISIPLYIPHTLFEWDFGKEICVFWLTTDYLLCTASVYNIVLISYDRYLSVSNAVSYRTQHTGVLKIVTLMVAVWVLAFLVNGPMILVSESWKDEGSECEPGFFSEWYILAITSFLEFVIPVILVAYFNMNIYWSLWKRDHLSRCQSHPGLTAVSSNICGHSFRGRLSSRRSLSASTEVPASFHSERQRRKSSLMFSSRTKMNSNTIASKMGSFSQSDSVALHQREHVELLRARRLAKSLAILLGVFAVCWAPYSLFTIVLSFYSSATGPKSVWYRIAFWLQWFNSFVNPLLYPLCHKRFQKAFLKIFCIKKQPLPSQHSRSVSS
Experiment [14] concerns the target 5-hydroxytryptamine receptor 2B (Homo sapiens) (UniProt P41595).
The target of experiment [15] is Sodium-dependent dopamine transporter (Homo sapiens) (UniProt Q01959).
Chain of Sodium-dependent dopamine transporter (Homo sapiens) (Q01959 whole entry): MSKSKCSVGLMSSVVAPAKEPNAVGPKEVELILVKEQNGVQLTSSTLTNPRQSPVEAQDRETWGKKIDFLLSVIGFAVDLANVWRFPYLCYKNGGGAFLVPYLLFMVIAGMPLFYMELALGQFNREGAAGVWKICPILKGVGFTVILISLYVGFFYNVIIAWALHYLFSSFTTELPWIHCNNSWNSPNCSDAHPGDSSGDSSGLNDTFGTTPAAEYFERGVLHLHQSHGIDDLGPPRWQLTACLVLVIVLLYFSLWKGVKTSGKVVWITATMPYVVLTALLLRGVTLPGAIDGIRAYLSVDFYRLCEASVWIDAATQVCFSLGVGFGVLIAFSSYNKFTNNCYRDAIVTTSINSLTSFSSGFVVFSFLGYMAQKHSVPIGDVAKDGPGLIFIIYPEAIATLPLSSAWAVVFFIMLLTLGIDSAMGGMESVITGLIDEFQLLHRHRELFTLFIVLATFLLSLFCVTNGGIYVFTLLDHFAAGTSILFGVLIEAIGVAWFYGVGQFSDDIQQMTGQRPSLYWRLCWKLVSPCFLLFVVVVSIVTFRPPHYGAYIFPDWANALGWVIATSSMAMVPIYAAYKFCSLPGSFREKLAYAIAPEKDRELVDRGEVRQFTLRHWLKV
Experiment [16] deals with Translocator protein (Homo sapiens) (UniProt P30536).
Chain of Translocator protein (Homo sapiens) (P30536 whole entry): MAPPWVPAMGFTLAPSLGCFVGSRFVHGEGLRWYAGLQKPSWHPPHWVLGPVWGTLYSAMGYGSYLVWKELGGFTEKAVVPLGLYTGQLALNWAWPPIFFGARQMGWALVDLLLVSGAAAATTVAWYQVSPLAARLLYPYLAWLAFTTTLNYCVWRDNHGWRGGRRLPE
Experiment [17] concerns the target Histamine H1 receptor (Homo sapiens) (UniProt P35367).

Data on 9 molecules can be found in ChEMBL document CHEMBL5442219.

For orientation: inhibition means the relative decrease from the control value, in per cent.

Chain of 5-hydroxytryptamine receptor 5A (Homo sapiens) (P47898 whole entry): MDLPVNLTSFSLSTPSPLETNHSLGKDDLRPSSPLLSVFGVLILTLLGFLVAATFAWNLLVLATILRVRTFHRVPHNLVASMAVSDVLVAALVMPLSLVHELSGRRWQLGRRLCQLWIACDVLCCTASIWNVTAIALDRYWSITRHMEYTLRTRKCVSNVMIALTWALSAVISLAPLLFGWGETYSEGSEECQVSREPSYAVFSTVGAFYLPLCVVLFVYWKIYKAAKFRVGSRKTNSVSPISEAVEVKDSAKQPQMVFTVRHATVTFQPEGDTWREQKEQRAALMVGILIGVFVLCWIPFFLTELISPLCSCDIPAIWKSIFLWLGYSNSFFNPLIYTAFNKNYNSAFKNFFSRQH
Chain of Histamine H1 receptor (Homo sapiens) (P35367 whole entry): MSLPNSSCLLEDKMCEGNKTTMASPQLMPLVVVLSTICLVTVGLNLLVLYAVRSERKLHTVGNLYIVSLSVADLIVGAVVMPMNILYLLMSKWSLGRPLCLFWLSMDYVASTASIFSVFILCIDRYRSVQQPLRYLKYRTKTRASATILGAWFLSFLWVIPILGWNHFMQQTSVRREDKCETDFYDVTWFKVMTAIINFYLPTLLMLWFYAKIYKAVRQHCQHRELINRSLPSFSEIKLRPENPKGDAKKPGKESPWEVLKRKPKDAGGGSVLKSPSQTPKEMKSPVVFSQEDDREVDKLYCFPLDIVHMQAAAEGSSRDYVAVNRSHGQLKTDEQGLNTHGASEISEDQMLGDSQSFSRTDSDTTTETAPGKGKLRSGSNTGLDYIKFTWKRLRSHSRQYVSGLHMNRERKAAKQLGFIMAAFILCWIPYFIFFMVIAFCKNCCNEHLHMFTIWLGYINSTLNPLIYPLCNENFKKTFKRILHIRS
Chain of 5-hydroxytryptamine receptor 2B (Homo sapiens) (P41595 whole entry): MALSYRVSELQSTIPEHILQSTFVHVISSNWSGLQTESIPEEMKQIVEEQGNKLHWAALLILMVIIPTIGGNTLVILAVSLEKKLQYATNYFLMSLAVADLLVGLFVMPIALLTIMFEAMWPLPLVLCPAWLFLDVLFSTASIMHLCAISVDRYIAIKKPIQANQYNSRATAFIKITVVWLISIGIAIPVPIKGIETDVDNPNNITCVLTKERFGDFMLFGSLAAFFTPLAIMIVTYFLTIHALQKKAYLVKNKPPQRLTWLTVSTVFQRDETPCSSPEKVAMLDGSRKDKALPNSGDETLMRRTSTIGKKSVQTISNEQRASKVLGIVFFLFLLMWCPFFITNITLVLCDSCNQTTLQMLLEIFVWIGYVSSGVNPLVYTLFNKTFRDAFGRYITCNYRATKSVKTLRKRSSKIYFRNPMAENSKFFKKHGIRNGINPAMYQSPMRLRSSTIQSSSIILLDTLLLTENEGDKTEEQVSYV

As to `CCCCCCCCCCCCCCCCOC[C@H](COP(=O)([O-])OCC[N+](C)(C)C)OC(C)=O`, the inhibition in experiment [1] is 68.8%; in experiment [2], 3.24%; in experiment [3], 49.9%; in experiment [4] it was -4.25%; in [5], 19.2%; in experiment [6] it was 68.2%. The inhibition is 17.5% in experiment [7]; 43.7% in [8]; 35.1% in [9]; 7.97% in [10]; 4.45% in [11].
Regarding `CN1C2CCC1CC(OC(c1ccc(F)cc1)c1ccc(F)cc1)C2` (stereo unspecified), the inhibition in experiment [3] was 94.5%; in [4], 111%; in [5], 95.9%; in experiment [12], 83%; in experiment [13], 67.8%; in experiment [6], 74%. Moreover, the inhibition in experiment [14] is 102%; in [7], 83.1%; in experiment [9], 59.1%; in [10], 93.6%; in experiment [15], 96.9%; in experiment [16], 47.8%. In experiment [11], the inhibition is 86.9%.
`Cc1c(OCc2cccc(-c3ccc(C(=O)O)cc3)c2)cc2c(c1C)C(=O)C(C1CCCC1)C2` (stereo unspecified): the inhibition was -9.01% in [3]; 32.3% in [4]; 34.5% in experiment [5]; -5.51% in experiment [12]; -3.97% in experiment [17]; 14.3% in experiment [13]. Moreover, the inhibition in experiment [6] is 0.61%; in [8] it was -8.42%; in experiment [10], -6.04%; in experiment [16] it was 17.6%; in experiment [11], 25.4%.
In the case of `Cc1cc(NC(=O)Nc2ccc(N(C)C)cc2)c2cc(F)cc(F)c2n1`, the inhibition in [1] is 3.9%; in experiment [2] it was 9.7%; in experiment [3], -7.92%; in experiment [4] it was 52.8%; in experiment [12], 29.1%; in [17], 6.41%. Also, the inhibition in experiment [13] was 5.25%; in experiment [6], -2.42%; in [14], 73.3%; in [9], 1.4%; in experiment [10], 96%; in [15], 22.8%. The inhibition in experiment [16] is 8.35%; in experiment [11], 16.8%.
Turning to `CCCCC#Cc1nc(NC)c2ncn([C@@H]3O[C@H](CO)[C@@H](O)[C@H]3O)c2n1`, the inhibition in [2] is -4.88%; in [3], -6.77%; in experiment [4], 22.8%; in experiment [5] it was 13.6%; in experiment [12], 0.72%; in [17], 20.6%. Further, the inhibition in [13] is -7.18%; in experiment [6], 8.46%; in experiment [14] it was -4.41%; in [7], -6.71%; in [8] it was 9.12%; in experiment [9] it was 2.4%. The results for the inhibition in [10], in [16] and in experiment [11] were -7.49%, 3.46% and 16%, respectively.
Turning to `CCCSc1nc(N[C@@H]2C[C@H]2c2ccc(F)c(F)c2)c2nnn([C@@H]3C[C@H](OCCO)[C@@H](O)[C@H]3O)c2n1`, the inhibition in experiment [1] was 41.2%; in experiment [2], 15.4%; in experiment [3] it was 18.3%; in experiment [4], -1.83%; in experiment [12], 24%; in [17], 16.1%. In addition, the inhibition in experiment [13] was -2.55%; in experiment [6], 48.6%; in experiment [14], 33.3%; in experiment [7], 33.2%; in experiment [8], 17.9%; in [9], -2.99%. For the same molecule, the inhibition in experiment [10] is 35.4%; in experiment [15], 75.8%; in experiment [16], 46%; in [11], 3.94%.
Consider `CCCCCNC(=O)NS(=O)(=O)c1cc([N+](=O)[O-])ccc1NC1CCCCC1`, for which the inhibition in experiment [1] is -2.94%; in [2], -0.86%; in experiment [3] it was -6.06%; in experiment [4], -9.24%; in experiment [5] it was 16.6%; in experiment [12] it was -2.52%. Also, the inhibition in experiment [17] is 12.8%; in experiment [13] it was 16.9%; in experiment [6] it was 12.4%; in experiment [14], -9.68%; in experiment [8] it was 8.56%; in experiment [9], 26.7%. For the same molecule, the inhibition in experiment [10] was 16%; in experiment [15], 26.3%; in experiment [16] it was 34.5%; in experiment [11], -2.95%.
Take `COc1ccc(Br)cc1S(=O)(=O)NC(=O)/C=C/c1ccccc1Cc1ccc2ccccc2c1`: the inhibition was -4.1% in experiment [1]; 18.6% in experiment [2]; 4.85% in experiment [3]; 40.7% in experiment [4]; 12.9% in experiment [5]; -4.59% in [12]. The inhibition was 9.07% in experiment [17]; -5.64% in experiment [13]; 12% in [6]; -4.73% in experiment [14]; -2.75% in [8]; 22.1% in experiment [9]. The inhibition in experiment [10] was 11%; in experiment [16] it was 17.7%; in experiment [11], 16%.
Take `C[C@@H](NCCCc1cccc(C(F)(F)F)c1)c1cccc2ccccc12`: the inhibition was 39.4% in [1]; 77.9% in experiment [2]; 17.6% in [3]; 42% in experiment [4]; 25.8% in [5]; 8.33% in [12]. Further, the inhibition in experiment [17] is 12.7%; in experiment [13], 14%; in experiment [6], 61.5%; in [14], 96.3%; in [7], 81.9%; in experiment [9], 78.3%. The inhibition in experiment [15] is 70.4%; in experiment [16], 13.5%; in [11], 62.1%.
